From patent publication US12630580B2, “5′-O-phenylacetyluridine and therapeutic use” (PHARMA CINQ, LLC, priority 2020, dated 2026) come the findings set out here.

Data set [1] is described as follows: Plasma concentrations of uridine, PB and metabolites after oral administration (comparative bioavailability). Here is the method: The delivery of phenylacetate into the bloodstream after oral administration of PAU was also assessed. Sodium phenylbutyrate is used in clinical practice as an ammonia scavenger in hepatic encephalopathy or genetic nitrogen cycle disorders, or as a chaperone or histone deacetylase inhibitor. It is predominantly metabolized to phenylacetate via beta-oxidation in the liver, and phenylacetate mediates the therapeutic benefits of phenylbutyrate. PAU was administered orally at a dose equimolar to 200 mg/kg sodium phenylbutyrate. Female BALB/c mice (n=3-5 group) were given test compounds p.o. and after 30 minutes were retro-orbitally bled to obtain plasma. […] An equimolar dose or uridine was used as a comparator for efficiency of delivery of uridine into the circulation by oral administration of PAU.

Data set [2] deals with TNFα. The experiment in a line: LPS-induced elevation of plasma TNFα (inflammation model). The data set is classed as in vivo. The settings on record: female BALB/c mice; for TNF α ± SEM: plasma one hour after LPS. Here is the method: Injection of bacterial cell wall constituent lipopolysaccharide (LPS) has been used as a model of inflammation. The inflammatory cascade can lead to cellular and organ damage when unchecked.
Female BALB/c mice […] of age (n=7-8/group) were treated with Vehicle (0.75% HPMC) or PAU p.o. and 30 minutes later LPS (2.5 mg/kg i.p.) was administered. One hour after LPS, mice were sacrificed and blood was collected for measurement of plasma TNFα.

The mark [3] stands for this setting: female BALB/c mice, p.o., dose equimolar to 200 mg/kg sodium phenylbutyrate, plasma 30 minutes after dosing.

As for `O=C(Cc1ccccc1)OC[C@H]1O[C@@H](n2ccc(=O)[nH]c2=O)[C@H](O)[C@@H]1O` [PAU, 5′-O-Phenylacetyluridine], the “Elevation of plasma uridine and uracil compared with equimolar dose of oral uridine” value in data set [1] (oral, mice) was “elevated plasma uridine and uracil better”. The “TNF α ± SEM” value in data set [2] (PAU 165 mg/kg p.o. 30 minutes before LPS 2.5 mg/kg i.p., Vehicle 15,981 ± 2,951) is on record as 10,068 ± 2,583 pg/ml; in data set [2] (PAU 331 mg/kg p.o. 30 minutes before LPS 2.5 mg/kg i.p., p < .05 compared to Vehicle (15,981 ± 2,951)), 7,034 ± 1,236 + pg/ml. The “Anti-inflammatory effect in the LPS-induced elevation of plasma TNFα” value in data set [2] (p.o.) was “significant anti-inflammatory effect”.

Turning to sodium phenylbutyrate [NaPB], in data set [1] (setting [3]), the “Plasma concentration of PA (phenylacetate)” value worked out at 401 µM and the “Plasma concentration of PB (phenylbutyrate)” value is 26 µM.
